# Data from patent publication US7504411B2, “2,3,6-Trisubstituted-4-pyrimidone derivatives” (Mitsubishi Tanabe Pharma Corporation, priority 2003, dated 2009).
# Target: T1, bovine cerebral TPK1 (Bos taurus, UniProt A0A3Q1MT31)
# T1 construct: Phosphorylation by Bovine Cerebral TPK1; from tissue; host or cells: bovine brain (cerebrum)
# Experiment: Inhibitory activity against P-GS1 phosphorylation by bovine cerebral TPK1
# Assay type: biochemical
# Settings: 41.7 μM [γ-32P]ATP, 25° C., 2 hours
# Procedure: Inhibitory Activity of the Medicament of the Present Invention against P-GS1 Phosphorylation by Bovine Cerebral TPK1
# A mixture containing 100 mM MES-sodium hydroxide (pH 6.5), 1 mM magnesium acetate, 0.5 mM EGTA, 5 mM β-mercaptoethanol, 0.02% Tween 20, 10% glycerol, 12 μg/ml P-GS1, 41.7 μM [γ-^32P] ATP (68 kBq/ml), bovine cerebral TPK1 and a compound shown in Table (a final mixture contained 1.7% DMSO deriving from a solution of a test compound prepared in the presence of 10% DMSO) was used as a reaction system. The phosphorylation was started by adding ATP, and the reaction was conducted at 25° C. for 2 hours, and then stopped by adding 21% perchloric acid on ice cooling. The reaction mixture was centrifuged at 12,000 rpm for 5 minutes and adsorbed on P81 paper (Whatmann), and then the paper was washed four times with 75 mM phosphoric acid, three times with water and once with acetone. The paper was dried, and the residual radioactivity was measured using a liquid scintillation counter.
# T1 sequence (A0A3Q1MT31 1-419): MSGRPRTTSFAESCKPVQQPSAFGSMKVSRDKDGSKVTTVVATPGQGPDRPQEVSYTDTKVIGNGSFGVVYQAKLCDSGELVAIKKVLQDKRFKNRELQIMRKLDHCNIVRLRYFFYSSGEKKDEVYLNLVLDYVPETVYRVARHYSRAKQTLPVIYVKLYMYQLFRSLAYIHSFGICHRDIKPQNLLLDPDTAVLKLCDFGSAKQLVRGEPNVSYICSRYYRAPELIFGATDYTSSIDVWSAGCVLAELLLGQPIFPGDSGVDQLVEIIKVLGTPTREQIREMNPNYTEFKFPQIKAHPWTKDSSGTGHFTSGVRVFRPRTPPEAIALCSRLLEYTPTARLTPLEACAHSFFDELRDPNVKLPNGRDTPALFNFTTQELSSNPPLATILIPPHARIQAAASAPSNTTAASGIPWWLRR
row,IC50 [µM],SMILES
1,0.018,Cn1c(N2CCNC(c3ccccc3)C2)nc(-c2ccncc2)cc1=O (stereo not drawn) [XA361]
2,0.23,Cn1c(N2CCCC(C#N)(c3ccccc3)C2)nc(-c2ccncc2)cc1=O (stereo not drawn) [XB80]
3,0.216,COc1cc(F)ccc1C1CN(c2nc(-c3ccncn3)cc(=O)n2C)CCN1Cc1ccccc1 (stereo not drawn) [YA0864]
